Experimental findings from ChEMBL document CHEMBL5465560, “Selectivity Literature for EUbOPEN Chemogenomic Library” (2024) are described below.

Assay [1] addresses Serine/threonine-protein kinase PAK 6 (Homo sapiens) (UniProt Q9NQU5). Nature of the assay: Selectivity interaction (ProQinase) EUB0000171b PAK6. The conditions noted are these: at 5 µM.
Assay [2] concerns the target Calcium/calmodulin-dependent protein kinase kinase 2 (Homo sapiens) (UniProt Q96RR4). Kind of assay: Selectivity interaction (ProQinase) EUB0000171b CAMKK2.
Assay [3] concerns the target T1, Homeodomain-interacting protein kinase 4 (Homo sapiens) (UniProt Q8NE63).
T1 sequence (whole entry): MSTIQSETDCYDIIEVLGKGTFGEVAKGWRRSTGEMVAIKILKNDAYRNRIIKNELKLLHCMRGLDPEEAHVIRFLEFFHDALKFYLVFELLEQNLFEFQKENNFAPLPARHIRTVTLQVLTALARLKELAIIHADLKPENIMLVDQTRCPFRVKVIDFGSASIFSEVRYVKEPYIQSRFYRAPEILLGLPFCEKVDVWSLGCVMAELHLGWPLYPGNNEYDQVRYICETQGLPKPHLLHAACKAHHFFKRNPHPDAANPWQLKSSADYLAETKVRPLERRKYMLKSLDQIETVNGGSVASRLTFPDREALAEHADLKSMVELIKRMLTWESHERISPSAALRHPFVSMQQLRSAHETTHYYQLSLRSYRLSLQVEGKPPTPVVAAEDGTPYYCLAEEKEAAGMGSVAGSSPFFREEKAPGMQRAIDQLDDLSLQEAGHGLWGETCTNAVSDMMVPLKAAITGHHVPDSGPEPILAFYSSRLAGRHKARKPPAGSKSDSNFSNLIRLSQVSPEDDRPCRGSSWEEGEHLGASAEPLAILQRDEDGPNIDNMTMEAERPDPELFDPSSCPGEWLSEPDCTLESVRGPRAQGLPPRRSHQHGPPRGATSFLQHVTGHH
The conditions noted are these: at 10 µM.

Assay [4] concerns the target T2, Membrane-associated tyrosine- and threonine-specific cdc2-inhibitory kinase (Homo sapiens) (UniProt Q99640).
T2 sequence (whole entry): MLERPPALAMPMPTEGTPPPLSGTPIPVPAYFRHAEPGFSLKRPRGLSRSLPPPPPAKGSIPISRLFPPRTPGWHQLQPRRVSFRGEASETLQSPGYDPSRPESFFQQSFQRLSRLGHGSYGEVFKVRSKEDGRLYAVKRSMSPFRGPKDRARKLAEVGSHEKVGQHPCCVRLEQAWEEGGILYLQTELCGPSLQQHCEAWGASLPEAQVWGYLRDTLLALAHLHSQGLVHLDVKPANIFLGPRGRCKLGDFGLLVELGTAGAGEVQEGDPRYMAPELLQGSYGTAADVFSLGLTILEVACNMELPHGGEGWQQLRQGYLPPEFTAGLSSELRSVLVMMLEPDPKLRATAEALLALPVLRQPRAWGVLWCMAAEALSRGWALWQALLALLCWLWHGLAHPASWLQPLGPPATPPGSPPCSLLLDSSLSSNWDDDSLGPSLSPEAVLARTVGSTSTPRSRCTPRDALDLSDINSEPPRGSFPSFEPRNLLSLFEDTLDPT
Nature of the assay: Selectivity interaction (KinomeScan (DiscoverX)) EUB0001079a PKMYT1. Conditions: at 1 µM.

Assay [5] addresses T3, Dual specificity mitogen-activated protein kinase kinase 6 (Homo sapiens) (UniProt P52564).
T3 sequence (whole entry): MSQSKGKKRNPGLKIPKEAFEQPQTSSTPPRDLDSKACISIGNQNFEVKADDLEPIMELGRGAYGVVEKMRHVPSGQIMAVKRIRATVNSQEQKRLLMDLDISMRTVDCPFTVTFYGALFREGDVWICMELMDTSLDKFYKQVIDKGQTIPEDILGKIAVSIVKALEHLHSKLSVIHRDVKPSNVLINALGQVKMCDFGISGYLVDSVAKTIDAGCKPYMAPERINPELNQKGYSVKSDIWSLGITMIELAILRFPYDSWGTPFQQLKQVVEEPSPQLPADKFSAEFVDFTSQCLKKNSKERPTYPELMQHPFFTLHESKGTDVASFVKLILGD
Nature of the assay: Selectivity interaction (Kinase panel (Z-LYTE Assay)) EUB0001632a MAP2K6. Conditions: at 10 µM.

For assay [6], the target named is T4, Mitogen-activated protein kinase 12 (Homo sapiens) (UniProt P53778).
T4 sequence (whole entry): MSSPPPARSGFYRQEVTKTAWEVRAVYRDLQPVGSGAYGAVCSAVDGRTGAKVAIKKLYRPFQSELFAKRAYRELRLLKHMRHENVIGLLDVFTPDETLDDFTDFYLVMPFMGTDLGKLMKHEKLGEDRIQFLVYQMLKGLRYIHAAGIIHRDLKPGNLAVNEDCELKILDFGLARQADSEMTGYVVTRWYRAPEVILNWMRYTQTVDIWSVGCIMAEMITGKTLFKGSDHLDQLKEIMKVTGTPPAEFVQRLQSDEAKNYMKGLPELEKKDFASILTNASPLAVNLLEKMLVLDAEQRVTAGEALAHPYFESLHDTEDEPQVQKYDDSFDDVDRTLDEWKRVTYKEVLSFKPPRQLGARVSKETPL
Kind of assay: Selectivity interaction (SelectScreen profiling (Invitrogen)) EUB0000607a MAPK12. The conditions noted are these: at 2 µM.

For assay [7], the target named is RAC-gamma serine/threonine-protein kinase (Homo sapiens, UniProt Q9Y243). Nature of the assay: Selectivity interaction (Kinase panel (DSF assay)) EUB0001559a AKT3. (Differential scanning fluorimetry follows unfolding on heating by fluorescence.)
RAC-gamma serine/threonine-protein kinase, sequence (Q9Y243 whole entry): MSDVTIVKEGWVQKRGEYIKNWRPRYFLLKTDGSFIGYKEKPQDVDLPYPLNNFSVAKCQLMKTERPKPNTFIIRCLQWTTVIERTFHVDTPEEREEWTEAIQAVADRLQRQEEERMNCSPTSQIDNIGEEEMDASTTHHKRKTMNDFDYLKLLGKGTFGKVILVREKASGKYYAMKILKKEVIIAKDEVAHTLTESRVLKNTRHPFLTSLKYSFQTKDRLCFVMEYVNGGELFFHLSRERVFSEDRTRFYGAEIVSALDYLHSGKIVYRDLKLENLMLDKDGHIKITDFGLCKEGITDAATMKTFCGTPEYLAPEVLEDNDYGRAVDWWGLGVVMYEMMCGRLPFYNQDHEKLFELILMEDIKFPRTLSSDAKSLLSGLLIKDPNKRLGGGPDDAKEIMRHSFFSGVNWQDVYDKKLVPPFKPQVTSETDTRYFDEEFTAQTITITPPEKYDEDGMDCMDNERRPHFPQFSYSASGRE
The target in assay [8] is Serine/threonine-protein kinase Nek6 (Homo sapiens) (UniProt Q9HC98). Kind of assay: Selectivity interaction (Kinase panel (KiNativ target engagement assay in Jurkat cells)) EUB0001635a NEK6. The conditions noted are these: Selectivity number of off-targets 0.0, Selectivity number of targets 233.0, Source Knowledge https://www.sciencedirect.com/science/article/pii/S2451945619300674?via%3Dihub, at 1 µM. The class given is cell-based.
Serine/threonine-protein kinase Nek6 (Homo sapiens), sequence (Q9HC98 whole entry): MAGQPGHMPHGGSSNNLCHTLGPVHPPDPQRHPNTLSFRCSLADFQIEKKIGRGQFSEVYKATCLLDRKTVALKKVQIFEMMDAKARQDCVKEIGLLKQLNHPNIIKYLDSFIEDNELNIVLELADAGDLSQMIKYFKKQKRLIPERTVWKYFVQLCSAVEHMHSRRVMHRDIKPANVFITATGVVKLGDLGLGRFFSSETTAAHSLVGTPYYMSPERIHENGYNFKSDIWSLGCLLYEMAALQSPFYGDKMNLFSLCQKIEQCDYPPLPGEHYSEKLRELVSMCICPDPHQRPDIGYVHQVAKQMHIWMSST

Calcium/calmodulin-dependent protein kinase kinase 2 (Homo sapiens), sequence (Q96RR4 2-588 limits assumed): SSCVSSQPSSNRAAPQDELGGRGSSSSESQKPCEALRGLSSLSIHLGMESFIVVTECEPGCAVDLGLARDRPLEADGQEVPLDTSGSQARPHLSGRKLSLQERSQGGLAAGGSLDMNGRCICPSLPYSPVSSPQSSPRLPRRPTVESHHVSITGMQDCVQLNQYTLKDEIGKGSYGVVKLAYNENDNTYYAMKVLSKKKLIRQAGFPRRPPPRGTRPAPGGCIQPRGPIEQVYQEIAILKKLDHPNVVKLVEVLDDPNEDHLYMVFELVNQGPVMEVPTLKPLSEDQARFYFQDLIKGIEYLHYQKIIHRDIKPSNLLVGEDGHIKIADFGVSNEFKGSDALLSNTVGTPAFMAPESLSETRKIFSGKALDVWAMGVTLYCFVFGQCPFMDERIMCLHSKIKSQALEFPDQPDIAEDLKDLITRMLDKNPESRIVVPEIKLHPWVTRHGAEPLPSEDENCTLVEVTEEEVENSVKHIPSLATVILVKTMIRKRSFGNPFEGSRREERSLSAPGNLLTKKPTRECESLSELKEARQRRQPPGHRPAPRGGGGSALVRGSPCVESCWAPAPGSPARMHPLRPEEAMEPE
Serine/threonine-protein kinase PAK 6 (Homo sapiens), sequence (Q9NQU5 whole entry, looked up): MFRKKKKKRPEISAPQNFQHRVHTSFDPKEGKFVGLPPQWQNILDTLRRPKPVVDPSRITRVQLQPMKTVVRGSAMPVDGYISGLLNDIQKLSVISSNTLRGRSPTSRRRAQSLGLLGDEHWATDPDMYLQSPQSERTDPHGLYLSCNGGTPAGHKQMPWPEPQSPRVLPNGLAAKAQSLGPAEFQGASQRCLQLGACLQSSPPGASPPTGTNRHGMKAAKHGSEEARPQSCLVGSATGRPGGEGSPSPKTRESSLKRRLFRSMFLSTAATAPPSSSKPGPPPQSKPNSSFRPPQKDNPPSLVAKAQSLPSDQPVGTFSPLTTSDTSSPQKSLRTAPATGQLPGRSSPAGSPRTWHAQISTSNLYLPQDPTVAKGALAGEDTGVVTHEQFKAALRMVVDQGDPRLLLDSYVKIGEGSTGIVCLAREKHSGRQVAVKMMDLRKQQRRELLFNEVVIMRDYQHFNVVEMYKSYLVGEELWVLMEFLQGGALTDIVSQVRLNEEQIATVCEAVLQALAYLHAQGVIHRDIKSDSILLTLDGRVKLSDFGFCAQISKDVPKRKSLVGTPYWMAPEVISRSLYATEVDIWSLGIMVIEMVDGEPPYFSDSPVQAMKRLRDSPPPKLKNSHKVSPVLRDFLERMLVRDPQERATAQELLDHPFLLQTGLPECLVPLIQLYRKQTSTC

For `C=CC(=O)Nc1cccc(C(=O)Nc2ccc(Nc3cc(-c4[nH]c(SC)nc4C)ccn3)cc2)c1`, the % of control in assay [1] came out at 67%; in assay [2] (at 1 µM), 83%; in assay [2] (at 5 µM), 86%.

In assay [3], `Cc1cc([C@@H](C)Nc2ccccc2C(=O)O)c2nc(N3CCOCC3)cc(=O)n2c1` [AZD-6482] registered a % of control of 100%.

Turning to `Nc1cnc(N2CCc3cc(S(=O)(=O)Nc4c(F)cc(Cl)cc4F)cc(N4CCCC4=O)c32)nc1` [TP-020n], the % of control in assay [4] turned out to be 99%.

In assay [5], `Cn1cc(-n2cnc3c(NCc4nc5cc(Cl)c(Cl)cc5[nH]4)nc(N4CCOCC4)nc32)cn1` registered a % of control of 5.11%.

Consider `CNC(=O)Nc1ccc(-c2nc(N3CC4CCC(C3)O4)c3cnn(C4CCC5(CC4)OCCO5)c3n2)cc1`, for which the % of inhibition in assay [6] was -2%.

Consider `CN(C(=O)c1cnn2cccnc12)c1cc2c(cc1N1CCOCC1)C(=O)N(C[C@@H](F)C(C)(C)O)C2`, for which the dTM in assay [7] was determined as 0 K.

Take `C=CC(=O)Nc1ccc(C(=O)Nc2[nH]nc3c2CN(C(=O)N[C@H](CN(C)C)c2ccccc2)C3(C)C)cc1`: the % of engagement in assay [8] stood at 2.3%.
